The NIST ThermoML archive (doi:10.1021/je700210n)

Assay: xn = mol fraction of the nth substance listed
Settings: Liquid, determined from the liquid sample's weight and the volume of sample.

CC [ethane] + N#N
Settings	mass density [kg/m3]
149.97 K, x2 = 0.0702	558.2
169.87 K, x2 = 0.2041	544.8
169.91 K, x2 = 0.114	537.5
170 K, x2 = 0.036	525
209.93 K, x2 = 0.0236	479.7
210.04 K, x2 = 0.3352	482.6
249.66 K, x2 = 0.0761	416.5
249.98 K, x2 = 0.0518	414.7
250.03 K, x2 = 0.1483	407.9
269.91 K, x2 = 0.1969	350.5
269.94 K, x2 = 0.0305	378.2
269.97 K, x2 = 0.3581	284.6
270 K, x2 = 0.2503	332.5
270.01 K, x2 = 0.06	376.3

N#N [nitrogen] + C
Settings	mass density [kg/m3]
129.98 K, x1 = 0.2952	648.5
129.99 K, x1 = 0.4716	618.7
149.93 K, x1 = 0.5938	413.6
149.96 K, x1 = 0.4151	527.4
149.97 K, x1 = 0.1389	602.8
149.97 K, x1 = 0.3339	555.8
150 K, x1 = 0.5608	436
150.01 K, x1 = 0.504	474.9
159.36 K, x1 = 0.3238	492
159.96 K, x1 = 0.4275	427.8
159.98 K, x1 = 0.0224	577
159.99 K, x1 = 0.2659	511
160 K, x1 = 0.4156	432.5
169.98 K, x1 = 0.2384	436.4
169.99 K, x1 = 0.263	420.1
170.01 K, x1 = 0.2279	442.9
170.01 K, x1 = 0.3013	383.6
179.98 K, x1 = 0.1281	390.8
179.98 K, x1 = 0.1898	319
